The test addresses T1, Heparan sulfate 2-O-sulfotransferase 1 (Cricetulus longicaudatus) (UniProt O08889).
T1 sequence (whole entry): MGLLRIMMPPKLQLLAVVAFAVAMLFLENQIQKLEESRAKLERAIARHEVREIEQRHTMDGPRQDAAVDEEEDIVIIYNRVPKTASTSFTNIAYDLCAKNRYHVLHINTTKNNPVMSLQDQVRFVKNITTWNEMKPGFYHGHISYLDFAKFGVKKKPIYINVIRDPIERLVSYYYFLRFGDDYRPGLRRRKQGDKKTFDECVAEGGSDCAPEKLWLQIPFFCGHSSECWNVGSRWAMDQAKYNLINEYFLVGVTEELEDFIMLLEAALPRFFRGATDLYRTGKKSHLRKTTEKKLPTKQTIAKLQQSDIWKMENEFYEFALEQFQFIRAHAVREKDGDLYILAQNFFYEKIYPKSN
The experiment in a line: Inhibition of sulfate transfer by HS 2-O-ST from CHO cells. The following applies: concentration not given here. It is filed as functional, cell-based.

For the compound `CC(=O)N[C@H]1NC[C@@H](C(=O)O)[C@H](N=C(N)N)[C@@H]1O`, the inhibition was determined as 76%.

The compound `CCC(CC)C(=O)N1C[C@@H](C(=O)O)[C@H](N=C(N)N)[C@H](O)[C@H]1NC(C)=O` yielded an inhibition of 84%.

For orientation: inhibition means the percentage by which the read-out fell short of the control.
